The text below walks through data of patent US7169966B2, “Salicylic acid-binding protein encoding nucleic acid, SABP2, and methods of use thereof” (Boyce Thompson Institute for Plant Research, Inc., priority 2001, dated 2007).

Molecules are shown by their SMILES.

In one assay the target is T1, AtSB2L1 (Arabidopsis thaliana, UniProt Q8S8S9).
T1 construct: made in house
T1 sequence (Q8S8S9 1-263): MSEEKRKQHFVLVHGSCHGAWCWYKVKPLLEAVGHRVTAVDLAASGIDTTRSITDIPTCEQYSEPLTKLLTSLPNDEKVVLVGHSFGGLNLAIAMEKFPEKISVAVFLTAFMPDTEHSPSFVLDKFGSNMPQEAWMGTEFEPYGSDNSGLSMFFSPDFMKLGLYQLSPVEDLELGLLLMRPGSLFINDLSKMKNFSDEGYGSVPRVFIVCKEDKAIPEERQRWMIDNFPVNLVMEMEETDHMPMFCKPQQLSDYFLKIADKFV
Nature of the assay: [3H] salicylic acid-binding assay with unlabeled competitors, Arabidopsis homolog produced in E. coli. Conditions: 1 mM unlabeled competitor; protein produced in E. coli; no competitor = 70 dpm. On the procedure: (§1) [^3H] Salicylic acid-binding assay: The protein extracts/fractions were mixed with 0.1 μM [^3H]-SA (23.6 Ci/mmol) (custom synthesized by NEN Life Science Products) in Buffer A to bring the total volume of the reaction mixture to 150 μl. The extracts were then incubated on ice for 60 minutes. Spin columns were prepared by packing Sephadex G-25 fine (Pharmacia) equilibrated with Buffer A into 1 ml disposable syringe barrels. The G-25 was packed to 1 ml and equilibrated by centrifuging at 1000 g for 4 minutes in a H-1000B rotor (Sorvall) at 4° C. The entire binding mixture was loaded onto the column and centrifuged under similar conditions. Bound [^3H]-SA which is present in the flow through, was mixed with 4 ml scintillation cocktail (Ecolite, ICN) and measured in a liquid scintillation counter. Appropriate controls were also assayed.
(§2) To rigorously establish that the 28 KDa protein from plant extract was SABP2, the cloned cDNA was expressed in E. coli as His6-tagged fusion protein and the recombinant protein was purified on a Ni column and tested for SA-binding activity (Table IV).

The next assay deals with T2, AtSB2L5 (Arabidopsis thaliana, UniProt Q9LFT6).
T2 construct: made in house; host or cells: E. coli
T2 sequence (Q9LFT6 1-258): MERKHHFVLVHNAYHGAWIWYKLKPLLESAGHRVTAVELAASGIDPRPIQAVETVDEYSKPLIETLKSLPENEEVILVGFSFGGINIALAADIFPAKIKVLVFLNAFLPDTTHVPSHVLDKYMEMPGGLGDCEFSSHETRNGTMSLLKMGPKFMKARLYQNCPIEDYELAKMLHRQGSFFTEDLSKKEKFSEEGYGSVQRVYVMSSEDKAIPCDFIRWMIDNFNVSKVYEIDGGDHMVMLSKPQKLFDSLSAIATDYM
The description is as above. Conditions: 1 mM unlabeled competitor; protein produced in E. coli; no competitor = 12927 dpm. On the procedure: as §1, §2

The target in a further assay is T3, AtSB2L9 (Arabidopsis thaliana, UniProt O23171).
T3 construct: made in house; host or cells: E. coli
T3 sequence (O23171 1-256): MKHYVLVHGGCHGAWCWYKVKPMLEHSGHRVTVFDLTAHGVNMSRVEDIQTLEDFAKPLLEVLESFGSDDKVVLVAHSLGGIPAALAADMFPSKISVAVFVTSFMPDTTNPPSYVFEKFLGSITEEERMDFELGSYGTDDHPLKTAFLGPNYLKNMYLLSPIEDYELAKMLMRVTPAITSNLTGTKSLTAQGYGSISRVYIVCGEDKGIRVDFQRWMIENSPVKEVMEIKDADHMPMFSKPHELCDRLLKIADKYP
The description is as above. Conditions: 1 mM unlabeled competitor; protein produced in E. coli; no competitor = 16486 dpm. On the procedure:
as §1, §2

The subject of a further assay is PR genes. Conditions: for induction of PR genes or enhanced disease resistance; cited from earlier work.
Assay [1] deals with T4, SABP2 (Nicotiana tabacum, UniProt Q6RYA0).
T4 sequence (Q6RYA0 1-260): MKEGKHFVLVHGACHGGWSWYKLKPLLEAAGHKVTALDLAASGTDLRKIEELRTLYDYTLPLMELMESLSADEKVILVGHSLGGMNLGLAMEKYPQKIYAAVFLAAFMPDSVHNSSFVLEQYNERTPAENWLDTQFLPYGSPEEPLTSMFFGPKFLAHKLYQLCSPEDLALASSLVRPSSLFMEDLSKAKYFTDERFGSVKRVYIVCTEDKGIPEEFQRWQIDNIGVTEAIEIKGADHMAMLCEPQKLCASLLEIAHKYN
Nature of the assay: [3H] salicylic acid-binding assay with unlabeled competitors, recombinant His6-SABP2 produced in E. coli. Details: Full-length tobacco SABP2 was PCR amplified; His6 (N); made in house; host or cells: E. coli BL21 (DE3), vector pET28a; species or system tobacco (Nicotiana tabacum). Conditions: for Bound [^3H] SA SABP2: 1 mM unlabeled competitor, protein produced in E. coli, no competitor = 140206 dpm; for inhibition of ^3H-SA binding by unlabeled competitor (in words): large molar excess of unlabeled competitor, recombinant His6-tagged protein; for binding to SABP2 (in words): recombinant, purified SABP2. On the procedure: as §1
Expression of Recombinant SABP2 in E. coli. Full-length tobacco SABP2 was PCR amplified to introduce BamH1 enzyme sites at both ends using the primers F2 ([…]) (SEQ ID NO:51) and F3 ([…]) (SEQ ID NO:52). The amplified product was cloned into the BamH1 site of pET28a (Novagen) and sequenced. Recombinant SABP2 (rSABP2) was synthesized as a soluble protein in E. coli strain BL21 (DE3) and affinity purified by Ni-NTA agarose chromatography (Novagen) as described by the manufacturer. rSABP2 was further purified on a Mono Q column as described earlier.
as §2

A further assay deals with SABP2 expression. Nature of the assay: Induction of SABP2 expression in plants by chemical treatment. It counts as in vivo, tobacco. Conditions: without TMV infection. An excerpt: Expression studies have been initiated and already indicate that the tobacco SABP2 and one of its putative Arabidopsis ortholog, AtSB2L9, are induced in plants resisting infection by viral [tobacco mosaic virus(TMV) or turnip crinkle virus (TCV)] or bacterial (P. s.) pathogens. These studies can be extended to other plant-pathogen interactions, e.g. P. s. pv tabaci, and P.s. pv tomato with or without AvrPto in tomato or Pto-transformed Nicotiana benthamiana, for SABP2 and P. s. and Peronospora parasitica for AtSB2L5, AtSB2L9, and other putative orthologs in Arabidopsis. […] Therefore, induction of SABP2 and its Arabidopsis ortholog(s) by ethylene can be tested in a similar fashion.

Assay [2] concerns the target T4, SABP2. Briefly: SA / analog binding to SABP2 isolated from tobacco plant extracts. Details: from tissue; host or cells: tobacco leaves, partially purified extract. An excerpt:
(§3) SA is a key component in the signal transduction pathway(s) leading to activation of certain defense responses in plants after pathogen attack. Previous studies have identified several proteins, including catalase and ascorbate peroxidase, through which the SA signal might act. A novel nucleic acid molecule encoding the SA-binding protein 2, SABP2, is described herein. SABP2 was identified through the use of a high specific activity ligand, [^3H]-SA (15–30 Ci/mmole). […] For example, SABP2 is much less abundant in leaf tissue than the catalase, and has an apparent native mass (Mr) of between about 20 and 40 kDa, as compared with the native molecular mass of catalase, which is approximately 240 kDa.
(§4) As one example, assays for SA analogues may be based on the ability of analogues to bind SABP2 or to compete with SA for binding to SABP2. […] Since SABP2 is part of the signal transduction pathway leading to disease resistance, it may be possible to enhance induction of disease resistance using analogues of SA which are not readily metabolized by the plants. […] This glucoside is not active for induction of disease resistance.
(§5) [^3H] […] Bound [^3H]-SA which is present in the flow through, was mixed with 4 ml scintillation cocktail (Ecolite, ICN) and measured in a liquid scintillation counter. […]

Assay [3] deals with T4, SABP2. Set-up: from tissue; host or cells: tobacco leaves, partially purified extract. Conditions: partially purified plant extracts; more avidly than SA (Du and Klessig, 1997); cited from earlier work.
For assay [4], the system named is SABP2. Nature of the assay: SA / analog binding to SABP2 isolated from tobacco plant extracts. The following applies: fold higher.
Text: as §3, §4, §5

The target of the next assay is lipase from Mucor meihei (Rhizomucor miehei, UniProt P19515). Briefly: Lipase activity assay with or without SA, control lipase. The following applies: data not shown. In kind it is biochemical. On the procedure: Since SABP2 contains the catalytic triad and the lipase signature sequence, the recombinant protein was tested for lipase activity. […] Addition of SA to the reaction stimulated lipase activity 3–6 fold (FIG. 6B). This stimulation required SA binding to SABP2, since it was abolished in reaction conditions that prevented SA binding. […] The lipase activity assay was performed as described by Yang et al. with modifications to allow SA binding to SABP2. The standard 1 ml assay mixture consisted of 1 mM substrate in 50 mM Bicine pH 8.0, 0.05% Triton-X100. Following a 60 min preincubation on ice in absence or presence of 1 mM SA, the reaction was allowed to proceed at 24° C. for 60 min. A 100 mM stock solution of p-NPM or p-NPP was prepared in acetonitrile. Lipase activity was estimated colorimetrically (Unicom UV1, Spectronic Unicom, UK) by measuring the liberation of para-nitrophenol from p-NPP or p-NPM at 410 nm. Measurements from control reactions without SABP2 were subtracted from each reaction. For non SA-binding conditions, Tris-HCl pH 8.0 (50 mM) was used in placed of Bicine buffer.
lipase from Mucor meihei, sequence (P19515 95-363): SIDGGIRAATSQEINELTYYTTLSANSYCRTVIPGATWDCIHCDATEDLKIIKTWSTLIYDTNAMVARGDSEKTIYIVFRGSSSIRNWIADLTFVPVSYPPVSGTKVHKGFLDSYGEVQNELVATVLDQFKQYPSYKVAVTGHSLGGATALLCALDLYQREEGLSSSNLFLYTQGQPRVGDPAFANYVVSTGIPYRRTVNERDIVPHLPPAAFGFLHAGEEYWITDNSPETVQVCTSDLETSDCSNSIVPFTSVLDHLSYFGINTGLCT

In assay [5] the target is T4, SABP2. Briefly: Lipase activity assay of purified recombinant SABP2 (pNP palmitate / pNP myristate) with or without SA. It counts as biochemical, tobacco. Details: Full-length tobacco SABP2 was PCR amplified; His6 (N); made in house; host or cells: E. coli BL21 (DE3), vector pET28a.

For `O=C(O)c1c(O)cccc1O` [2,6-DHBA, 2,6-dihydroxybenzoic acid], the “Bound [^3H] SA AtSB2L1” value on AtSB2L1 is listed as 36 dpm. Besides, on AtSB2L5, the “Bound [^3H] SA AtSB2L5” value came to 1742 dpm. For the same compound, at AtSB2L9, the “Bound [^3H] SA AtSB2L9” value was 1072 dpm. In addition, in the assay on PR genes, the “Biological Activity of competitor” value is “active”. For the same compound, the “Bound [^3H] SA SABP2” value at SABP2 [1] is listed as 924 dpm.
Consider `O=C(O)c1ccc(O)cc1` [4-HBA, 4-hydroxybenzoic acid], for which the “Bound [^3H] SA AtSB2L1” value on AtSB2L1 is given as 65 dpm. On AtSB2L5, the “Bound [^3H] SA AtSB2L5” value was 4757 dpm. In addition, the “Bound [^3H] SA AtSB2L9” value on AtSB2L9 is on record as 3620 dpm. The “Biological Activity of competitor” value in the assay with PR genes is “inactive”. For the same compound, on SABP2 [1], the “Bound [^3H] SA SABP2” value is 95634 dpm, the “inhibition of ^3H-SA binding by unlabeled competitor (in words)” value is on record as “not” and the “binding to SABP2 (in words)” value is reported as “only minimal binding”.
Regarding `O=C(O)c1cc(Cl)ccc1O` [5-CSA, 5-chlorosalicylic acid], the “Bound [^3H] SA AtSB2L1” value on AtSB2L1 was found to be 38 dpm. For the same compound, the “Bound [^3H] SA AtSB2L5” value at AtSB2L5 was found to be 64 dpm. Besides, the “Bound [^3H] SA AtSB2L9” value on AtSB2L9 turned out to be 42 dpm. In the assay with PR genes, the “Biological Activity of competitor” value is “active”. Also, the “Bound [^3H] SA SABP2” value at SABP2 [1] turned out to be 260 dpm.
Turning to `c1ccc2snnc2c1` [BTH, benzothiadiazole], the “induction of SABP2 expression by treatment alone” value in the assay on SABP2 expression was “insufficient”. Moreover, the “affinity of SABP2 for BTH relative to SA” value at SABP2 [2] (SABP2 isolated from plant extracts, fold greater) is “approximately 15 fold”. In addition, the “binding of BTH to SABP2 relative to SA” value on SABP2 [3] is on record as “about 15 fold”. The “binding to SABP2 (in words)” value on SABP2 [1] was “did not bind”.
In the case of `O=C(O)c1ccccc1O` [SA, salicylic acid], the “Bound [^3H] SA AtSB2L1” value at AtSB2L1 was determined as 42 dpm. Also, the “Bound [^3H] SA AtSB2L5” value on AtSB2L5 turned out to be 121 dpm. For the same compound, the “Bound [^3H] SA AtSB2L9” value on AtSB2L9 worked out at 36 dpm. Besides, in the assay with SABP2 [4], the “affinity of SABP2 for SA relative to that between SA and tobacco catalase” value is given as 100–150 fold. Further, at lipase from Mucor meihei, the “stimulation of lipase activity by SA” value is listed as “did not exhibit stimulation”. In addition, the “induction of SABP2 expression by treatment alone” value in the assay with SABP2 expression was “insufficient”. Besides, in the assay on PR genes, the “Biological Activity of competitor” value is listed as “active”. Further, the Kd at SABP2 [2] (SABP2 from tobacco, reversible binding, read-out: apparent Kd of SA binding to SABP2) is approximately 90 nM. At SABP2 [1], the “Bound [^3H] SA SABP2” value turned out to be 160 dpm and the “inhibition of ^3H-SA binding by unlabeled competitor (in words)” value was “inhibited effectively”. Besides, the “SA binding to SABP2 in Tris buffer (in words)” value on SABP2 [1] (50 mM bicine replaced with 50 mM Tris-HCl pH 8.0) is recorded as “does not bind”. For the same compound, on SABP2 [5] (1 mM SA, 50 mM Bicine pH 8.0, substrates pNP palmitate, pNP myristate), the “stimulation of SABP2 lipase activity by SA” value is on record as 3–6 fold. Moreover, the “stimulation of SABP2 lipase activity by SA under conditions that prevent SA binding” value at SABP2 [5] (Tris-HCl pH 8.0 (50 mM) in place of Bicine) is on record as “abolished”.
